Assay [1] deals with MRSE. Description: High-throughput screening of 1953 FDA-approved compounds with human lysozyme. In kind it is cell-based, Staphylococcus epidermis. The conditions noted are these: compound 25 μM + 1 mg/ml lysozyme, 24-hour. On the procedure: 1) High-throughput screening. According to standard screening method [Zhong. […] Commun. 11, 523 (2020)], 1953 FDA-approved compounds from our drugs library at a fixed concentrations of 25 μM were screened against methicillin-resistant Staphylococcus aureus (MRSA) and Staphylococcus epidermis (a coagulase negative Staphylococci, MRSE), in combination with human lysozyme. Specifically, these compounds were added into bacterial suspensions (1×10^5 CFU/ml, in LB medium) in the absence or presence of 1 mg/ml lysozyme. LB medium without bacteria served as background group. Then, the real-time growth curvet of MRSA were monitored per hour and for 24 hours. Absorbance at 600 am (OD600) of bacterial culture at the time point of 24-hour was also measured. The inhibition ratio (%) was calculated as (ODcontrol−ODsample)/(ODcontrol−ODbackground)×100%. […] Herein, the relative and apparent inhibition ratios indicated the combination effect and potential toxicity of compound, respectively. Synergy effect was defined as the relative inhibition ratio of ≥90%. All assays were performed in triplicate.

The subject of assay [2] is MRSA. In words: Nascent protein synthesis analysis (OPP probe). The conditions noted are these: Staphylococcus aureus, 1 h, read-out: minimal dosage of tedizolid phosphate for synthesis inhibition of half of the nascent protein. In kind it is cell-based. The procedure:
12) Nascent protein synthesis analysis. According to the previously reported method [Forester, C. M et al., Proc. Nat. […] Specifically, mid-log-phase MRSA with OD600 of 0.4 to 0.6 was treated with lysozyme, tedizolid phosphate or their combination at different concentrations at 37° C. for 1 hour. These bacteria served as related negative control groups. Positive control groups had similar protocols but with addition of 20 μM OPP. After 1 hour incubation, all bacteria were collected washed by cold PBS for 3 times and fixed by 3.7% formaldehyde in PBS, followed by re-suspension in lysis buffer containing 0.5% Triton® X-100. Then, these fixed and permeabilized cells were incubated with Click-iT™ plus OPP reaction cocktail according to the standard protocol [Forester, C. M et al., Proc. Nat. Acad. U.S.A. 115, 2353-2358 (2018)]. After 30 minutes incubation in the prevention of light at room temperature, the reaction cocktail was removed. Next, these fixed cells in 96-well plate were washed by using 200 μl/well of Click-iT® reaction rinse buffer, followed by further incubation with 1×HCS nuclear Mask™ blue stain working solution. After 30 minutes incubation in the prevention of light at room temperature, the nuclear Mask™ blue stain working solution was removed. […] Inhibition degrees of nascent proteins synthesis were expressed with fluorescence ratio (Alexa Fluor®/nuclear Mask™) as average±SD. […]

Where two headings read alike, the source gives them in different places.

The text below walks through data of patent publication US20250144187A1, “COMBINATION OF HYDROLASES AND ANTI-MICROORGANISM DRUGS AND USES THEREOF” (CENTRE FOR EYE AND VISION RESEARCH LIMITED, priority 2023, published 2025).

As to `C=CC1=C(C(=O)O)N2C(=O)[C@@H](NC(=O)/C(=N\O)c3csc(N)n3)[C@H]2SC1` [cefdinir, Cefdinir], the “Growth inhibition ratio (mean ± SD, %) MRSE” value in assay [1] is given as 20.31 ± 13.83%. On to `Cn1nnc(-c2ccc(-c3ccc(N4C[C@H](COP(=O)(O)O)OC4=O)cc3F)cn2)n1` [tedizolid phosphate, Tedizolid Phosphate], for which the IC50 in assay [2] (combination with 0.5 mg/ml lysozyme) was determined as 0.32 mg/L; in assay [2] (monotherapy), 9.5 mg/L.
